Here are results for three compounds from patent US20250264460A1, “METHOD OF MEASURING LEVEL OF IMMUNE SUPPRESSION” (THE JOHNS HOPKINS UNIVERSITY, priority 2022, published 2025).

Entries after “also recorded” stand apart in the source; their conditions may differ. Where two headings read alike, the source gives them in different places.

Data set [1] relates to SARS-COV-2 spike. The class given is in vivo, human. Conditions: SOTRs on immunosuppression, two weeks post dose three.
Data set [2] relates to class-switched B cells. Briefly: Flow cytometry of CD11c and CPT1a on class-switched B cells of SOTRs by MMF dose. The note with it: SOTRs on high dose MMF or MPA (>1000 mg/per day or >721 mg/day). The class given is in vivo, human. Here is the method:
(§1) FIGS. 4A-4J show high dose MMF inhibits mitochondrial fatty acid oxidation. FIGS. 4A-4B show normalized mean fluorescent intensity (MFI) of CD11c and CPT1a on total class-switched B cells segregated by dose of MMF; high (>1000), low (<1000), or none. […] FIGS. 4D-4E show oxygen consumption rate (OCR) following mitochondrial stress test of PBMCs plated directly post thaw from SOTRs or HCs (FIG. 4D) or healthy PBMCs treated in vitro with high or low dose MPA 48 hours prior to plating (FIG. 4E).
On the technique in general: Flow cytometry measures light scatter and fluorescence of single cells or particles in a stream.

Data set [3] concerns PBMCs. Nature of the data set: Oil red O staining of lipid droplets in PBMCs from SOTRs, ex vivo. Also on record: species or system human. The note with it: PBMCs from SOTRs on high dose MMF. Here is the method:
as §1
Due to the association with MMF dose and CPT1a expression, PBMCs from SOTRs receiving high dose, low dose, or no MMF were evaluated ex vivo for alterations in lipid metabolism. Immunosuppression dose is largely determined by estimation of graft function and the measurement of the blood levels of immunosuppressive drugs, although neither method is sensitive or specific for determining the current immunosuppressive status, particularly for MMF, where drug levels are not routinely measured. […] Mitochondrial bioenergetics were next measured directly ex vivo via the Agilent Seahorse XF Cell Mito Stress Test at basal levels and in response to mitochondrial stress, in the absence of additional stimulation or exogenous substrates. The oxygen consumption rate (OCR) was used as a measurement of mitochondrial respiration/oxidative phosphorylation (OXPHOS). […]

The subject of data set [4] is PBMCs. Briefly: Seahorse XF Cell Mito Stress Test (OCR) of PBMCs from SOTRs, ex vivo. The class given is in vivo, human. How it is done:
as §1
Due to the association with MMF dose and CPT1a expression, PBMCs from SOTRs receiving high dose, low dose, or no MMF were evaluated ex vivo for alterations in lipid metabolism. Immunosuppression dose is largely determined by estimation of graft function and the measurement of the blood levels of immunosuppressive drugs, although neither method is sensitive or specific for determining the current immunosuppressive status, particularly for MMF, where drug levels are not routinely measured. […] Mitochondrial bioenergetics were next measured directly ex vivo via the Agilent Seahorse XF Cell Mito Stress Test at basal levels and in response to mitochondrial stress, in the absence of additional stimulation or exogenous substrates. The oxygen consumption rate (OCR) was used as a measurement of mitochondrial respiration/oxidative phosphorylation (OXPHOS).

The subject of data set [5] is T cells and B cells. Nature of the data set: Cell Trace Violet proliferation of stimulated T cells and B cells in the presence of MPA. It counts as cell-based, human. The note with it: 6 days.
Data set [6] concerns healthy PBMCs. Briefly: Seahorse OCR of healthy PBMCs treated in vitro with MPA. It counts as cell-based, human. Conditions: for OCR: 48 hours prior to plating; for Effect on OCR increase of low dose MPA-treated cells: etomoxir (2 μM) 1 hour prior to measurement. Here is the method: as §1
FIGS. 8A-81 show high dose MPA induces mitochondrial unresponsiveness. […] FIGS. 8D-8G show healthy PBMCs were treated with 5 μM MPA for 24 hours in complete media then rested overnight in low-nutrient media prior to analysis. Oxygen consumption rate (OCR) of exposed to long chain fatty acid palmitate (165 μM) (FIG. 8D), medium chain fatty acid octanoic acid (200 μM) (FIG. 8E), glucose (10 mM) and pyruvate (1 mM) (FIG. 8F), or glutamine (2 mM) (FIG. 8G) 20 minutes prior to analysis. FIGS. 8H-81 show fold change in baseline (FIG. 8H) or maximal (FIG. 81) OCR when healthy PBMCs were supplied with indicated substrates.
To test this hypothesis, cells were exposed to low dose etomoxir, an inhibitor of CPT1a transport of FAs into mitochondria. […] To confirm that high dose MPA inhibits FAO, palmitate (a long chain FA) was added exogenously to cultures 20 minutes prior to evaluation of mitochondrial respiration.

In data set [7] the test system is healthy PBMCs. Briefly: Oil red O staining of healthy PBMCs treated in vitro with MPA. It counts as cell-based, human. The note with it: high dose MPA (5 μM). How it is done:
Genes associated lipid synthesis were increased in total B cells from SOTRs (R or NR) in SCR.NA seq (FIG. 14A). PCA plot of lipidomics performed on total B cells derived from SOTRs or HCs (FIG. 14B). […] Accumulation of lipid droplets were measured by Oil Red O in PBMCs from HC or SOTR (FIG. 14D).

The test system of data set [8] is PBMCs. Briefly: Viability of PBMCs after MPA treatment. It counts as cell-based, human. The note with it: PBMCs 48 hours after 5 μM MPA, versus untreated.
For data set [9], the system named is B cells and T cells. Briefly: OCR of B cells and T cells treated with MPA and etomoxir. It counts as cell-based, human. From the text: FIGS. 16A-16C show low dose MPA induces CPT1a-dependent FAO in B cells but not T cells.
[10] abbreviates: etomoxir (CPT1a inhibition), MPA-treated.

As for `COc1c(C)c2c(c(O)c1C/C=C(\C)CCC(=O)OCCN1CCOCC1)C(=O)OC2` [MMF, mycophenolate mofetil], in [1], the “Association of treatment with anti-S IgG response to third vaccine dose” value was “specifically associated with a lack of response”. For the same compound, in data set [1] (listed as mycophenolate mofetil), the “Association of treatment with anti-S IgG response to third vaccine dose” value is recorded as “all participants who failed to respond to a 3rd dose received”. In data set [2], the “CD11c expression on class switched B cells” value was “significantly lower” and the “CPT1a expression on class switched B cells” value is recorded as “significantly lower”. In [3], the “Intracellular lipid droplets (Oil Red O)” value is given as “higher levels of Oil Red O staining; also recorded: accumulation of intracellular lipid droplets”. In data set [4] (PBMCs from SOTRs on high dose MMF), the “Oxygen consumption rate (OCR)” value is reported as “reduced oxygen consumption rate; also recorded: reduced OCR compared to other SOTRs”. In addition, in [4] (PBMCs from SOTRs on low dose MMF, no exogenous substrates), the “Basal respiration (OCR)” value is on record as “significantly higher basal respiration compared to HCs”.

As for `COc1c(C)c2c(c(O)c1C/C=C(\C)CCC(=O)O)C(=O)OC2` [MPA, mycophenolic acid], the “CD11c expression on class switched B cells” value in [2] is listed as “significantly lower”. For the same compound, the “CPT1a expression on class switched B cells” value in data set [2] is “significantly lower”. Further, the Lymphocyte proliferation result in data set [5] (high dose MPA (5 μM)) is on record as “completely inhibit proliferation”; in data set [5] (low dose MPA (0.05 μM)), “limit proliferation”. In data set [6] (high dose MPA), the “Response to mitochondrial stress tests” value was “comparable manner to untreated cells”. Moreover, the “Mitochondrial oxidation of supplemented substrates (medium-chain fatty acids, glucose, glutamine)” value in data set [6] (high dose MPA (5 μM)) is listed as “inhibits mitochondrial oxidation of various substrates; also recorded: diminished mitochondrial oxidation of various supplemented substrates”. In addition, the results for the OCR entry in data set [6] (high dose MPA (5 μM)) and in data set [6] (low dose MPA) were “reduced OCR compared to low dose” and “directly induced increased OCR; also recorded: increased OCR compared to untreated PBMCs”, respectively. Moreover, in data set [6] (high dose MPA, palmitate (165 μM) 20 minutes prior), the “Oxidation of exogenous palmitate (OCR)” value was “not able to oxidize exogenous long-chain fatty acid palmitate; also recorded: unable to oxidize palmitate”. Also, the entries for the “Accumulation of lipids (Oil Red O)” value in [7] and in data set [7] (listed as mycophenolic acid) were “increased accumulation of lipids” and “Accumulation of lipid droplets was seen”, respectively. The Cell viability result in data set [8] is recorded as “equivalent cell viability”. For the same compound, in data set [9] (high dose MPA), the “OCR of B cells” value is recorded as “blunted the increased OCR in B cells”. The “OCR of B cells versus T cells” value in data set [9] (low dose MPA) is on record as “only B cells increased their OCR”.

Turning to `CCOC(=O)[C@@]1(CCCCCCOc2ccc(Cl)cc2)CO1` [etomoxir], in data set [6], the “Effect on OCR increase of low dose MPA-treated cells” value is recorded as “completely reversed the increase in OCR”. Also, the “Effect on OCR increase of low dose MPA-treated cells” value in [6] (listed as Etomoxir) was “completely reversed the increase of OCR”. In addition, in [9] (setting [10]), the “OCR of B cells” value is on record as “reduced OCR to baseline levels in B cells” and the “OCR of T cells” value is “had no effect on T cells”.
